Reference: patent US20240109972A1, “ANTIBODY AND TAXANE COMBINATION THERAPY” (Genmab A/S, priority 2020, published 2024)

Experiments:
[1] = GEN1046 in combination with docetaxel in metastatic NSCLC subjects, adverse effects; type: in vivo, human
Experimental: Docetaxel was administered at a dose of 55 mg/m^2 or 75 mg/m^2 depending on the number of prior Dose Limiting Toxicities observed. The maximum tested dose of docetaxel was be 75 mg/m^2.
Subjects with a histological or cytological diagnosis of non-squamous NSCLC must not have an EGFR-sensitizing mutation and/or ALK translocation/ROS1 rearrangement. EGFR sensitizing mutations are those mutations that are amenable to treatment with an approved TKI. Documentation of EGFR and ALK status should be available per local assessment.

[2] = system: MC38 mouse colon cancer cells; type: in vivo; details: mbsIgG2a-PD-L1×4-1BB 0.5 mg/kg 2QW×3, docetaxel 10 mg/kg QW×3; FIG. 7A
Experimental: MC38 mouse colon cancer cells were cultured in Dulbecco's Modified Eagle Medium supplemented with 10% heat-inactivated fetal bovine serum at 37° C., 5% CO2. MC38 cells were harvested from a cell culture growing in log-phase and quantified.
MC38 cells (1×10^6 tumor cells in 100 μL PBS) were injected subcutaneously in the right lower flank of female C57BL/6 mice (obtained from Vital River Laboratories Research Models and Services; age 6-8 weeks at start of experiment).
Tumor growth was evaluated three times per week using a caliper. Tumor volumes (mm^3) were calculated from caliper measurements as ([length]×[width]^2)/2, where the length is the longest tumor dimension, and the width is the longest tumor dimension perpendicular to the length.
Mice were randomized into groups (n=10/group) with an average tumor volume of 64 mm^3 prior to treatment. […]
The mice were monitored daily for clinical signs of illness. […]

## CC(=O)O[C@@]12CO[C@@H]1C[C@H](O)[C@@]1(C)C(=O)[C@H](O)C3=C(C)[C@@H](OC(=O)[C@H](O)[C@@H](NC(=O)OC(C)(C)C)c4ccccc4)C[C@@](O)([C@@H](OC(=O)c4ccccc4)[C@H]21)C3(C)C [Docetaxel, reference compound]
[1]; 55 mg/m^2 Docetaxel + GEN1046
  Anemia Grade 1, Docetaxel-related: 1
  Anemia Grade 2, Docetaxel-related: 2
  Anemia Grade 3, Docetaxel-related: 2
  Anemia Grade 4, Docetaxel-related: 0
  Anemia Grade 5, Docetaxel-related: 0
  Blood alkaline phosphatase increase Grade 1, Docetaxel-related: 0
  Blood alkaline phosphatase increase Grade 2, Docetaxel-related: 1
  Blood alkaline phosphatase increase Grade 3, Docetaxel-related: 1
  Blood alkaline phosphatase increase Grade 4, Docetaxel-related: 0
  Blood alkaline phosphatase increase Grade 5, Docetaxel-related: 0
  Dysgeusia Grade 1, Docetaxel-related: 0
  Dysgeusia Grade 2, Docetaxel-related: 1
  Dysgeusia Grade 3, Docetaxel-related: 0
  Dysgeusia Grade 4, Docetaxel-related: 0
  Dysgeusia Grade 5, Docetaxel-related: 0
  Fatigue Grade 1, Docetaxel-related: 0
  Fatigue Grade 2, Docetaxel-related: 2
  Fatigue Grade 3, Docetaxel-related: 1
  Fatigue Grade 4, Docetaxel-related: 0
  Fatigue Grade 5, Docetaxel-related: 0
  Febrile neutropenia Grade 1, Docetaxel-related: 0
  Febrile neutropenia Grade 2, Docetaxel-related: 0
  Febrile neutropenia Grade 3, Docetaxel-related: 1
  Febrile neutropenia Grade 4, Docetaxel-related: 0
  Febrile neutropenia Grade 5, Docetaxel-related: 0
  Hypokalemia Grade 1, Docetaxel-related: 0
  Hypokalemia Grade 2, Docetaxel-related: 1
  Hypokalemia Grade 3, Docetaxel-related: 0
  Hypokalemia Grade 4, Docetaxel-related: 0
  Hypokalemia Grade 5, Docetaxel-related: 0
  Hypomagnesaemia Grade 1, Docetaxel-related: 1
  Hypomagnesaemia Grade 2, Docetaxel-related: 0
  Hypomagnesaemia Grade 3, Docetaxel-related: 0
  Hypomagnesaemia Grade 4, Docetaxel-related: 0
  Hypomagnesaemia Grade 5, Docetaxel-related: 0
  Hyponatremia Grade 1, Docetaxel-related: 1
  Hyponatremia Grade 2, Docetaxel-related: 0
  Hyponatremia Grade 3, Docetaxel-related: 0
  Hyponatremia Grade 4, Docetaxel-related: 0
  Hyponatremia Grade 5, Docetaxel-related: 0
  Infusion site extravasation Grade 1, Docetaxel-related: 1
  Infusion site extravasation Grade 2, Docetaxel-related: 0
  Infusion site extravasation Grade 3, Docetaxel-related: 0
  Infusion site extravasation Grade 4, Docetaxel-related: 0
  Infusion site extravasation Grade 5, Docetaxel-related: 0
  Nausea Grade 1, Docetaxel-related: 1
  Nausea Grade 2, Docetaxel-related: 0
  Nausea Grade 3, Docetaxel-related: 0
  Nausea Grade 4, Docetaxel-related: 0
  Nausea Grade 5, Docetaxel-related: 0
  Neutrophil count decreased Grade 1, Docetaxel-related: 0
  Neutrophil count decreased Grade 2, Docetaxel-related: 0
  Neutrophil count decreased Grade 3, Docetaxel-related: 0
  Neutrophil count decreased Grade 4, Docetaxel-related: 1
  Neutrophil count decreased Grade 5, Docetaxel-related: 0
  Pyrexia Grade 1, Docetaxel-related: 1
  Pyrexia Grade 2, Docetaxel-related: 1
  Pyrexia Grade 3, Docetaxel-related: 0
  Pyrexia Grade 4, Docetaxel-related: 0
  Pyrexia Grade 5, Docetaxel-related: 0
  Vomiting Grade 1, Docetaxel-related: 0
  Vomiting Grade 2, Docetaxel-related: 2
  Vomiting Grade 3, Docetaxel-related: 0
  Vomiting Grade 4, Docetaxel-related: 0
  Vomiting Grade 5, Docetaxel-related: 0
  White blood cell count decreased Grade 1, Docetaxel-related: 0
  White blood cell count decreased Grade 2, Docetaxel-related: 0
  White blood cell count decreased Grade 3, Docetaxel-related: 0
  White blood cell count decreased Grade 4, Docetaxel-related: 1
  White blood cell count decreased Grade 5, Docetaxel-related: 0
[1]; 75 mg/m^2 Docetaxel + GEN1046
  Anaemia Grade 1, Docetaxel-related: 0
  Anaemia Grade 2, Docetaxel-related: 0
  Anaemia Grade 3, Docetaxel-related: 1
  Anaemia Grade 4, Docetaxel-related: 0
  Anaemia Grade 5, Docetaxel-related: 0
  Diarrhea Grade 1, Docetaxel-related: 1
  Diarrhea Grade 2, Docetaxel-related: 0
  Diarrhea Grade 3, Docetaxel-related: 0
  Diarrhea Grade 4, Docetaxel-related: 0
  Diarrhea Grade 5, Docetaxel-related: 0
  Dyspnea Grade 1, Docetaxel-related: 0
  Dyspnea Grade 2, Docetaxel-related: 0
  Dyspnea Grade 3, Docetaxel-related: 0
  Dyspnea Grade 4, Docetaxel-related: 1
  Dyspnea Grade 5, Docetaxel-related: 0
  Fatigue Grade 1, Docetaxel-related: 1
  Fatigue Grade 2, Docetaxel-related: 2
  Fatigue Grade 3, Docetaxel-related: 0
  Fatigue Grade 4, Docetaxel-related: 0
  Fatigue Grade 5, Docetaxel-related: 0
  Gastrooesophageal reflux disease Grade 1, Docetaxel-related: 0
  Gastrooesophageal reflux disease Grade 2, Docetaxel-related: 1
  Gastrooesophageal reflux disease Grade 3, Docetaxel-related: 0
  Gastrooesophageal reflux disease Grade 4, Docetaxel-related: 0
  Gastrooesophageal reflux disease Grade 5, Docetaxel-related: 0
  Hiccups Grade 1, Docetaxel-related: 0
  Hiccups Grade 2, Docetaxel-related: 1
  Hiccups Grade 3, Docetaxel-related: 0
  Hiccups Grade 4, Docetaxel-related: 0
  Hiccups Grade 5, Docetaxel-related: 0
  Lacrimation increased Grade 1, Docetaxel-related: 1
  Lacrimation increased Grade 2, Docetaxel-related: 0
  Lacrimation increased Grade 3, Docetaxel-related: 0
  Lacrimation increased Grade 4, Docetaxel-related: 0
  Lacrimation increased Grade 5, Docetaxel-related: 0
  Nausea Grade 1, Docetaxel-related: 1
  Nausea Grade 2, Docetaxel-related: 2
  Nausea Grade 3, Docetaxel-related: 0
  Nausea Grade 4, Docetaxel-related: 0
  Nausea Grade 5, Docetaxel-related: 0
  Neutrophil count decreased Grade 1, Docetaxel-related: 0
  Neutrophil count decreased Grade 2, Docetaxel-related: 0
  Neutrophil count decreased Grade 3, Docetaxel-related: 1
  Neutrophil count decreased Grade 4, Docetaxel-related: 1
  Neutrophil count decreased Grade 5, Docetaxel-related: 0
  Not coded: periphery sensory neuropathy Grade 1, Docetaxel-related: 1
  Not coded: periphery sensory neuropathy Grade 2, Docetaxel-related: 0
  Not coded: periphery sensory neuropathy Grade 3, Docetaxel-related: 0
  Not coded: periphery sensory neuropathy Grade 4, Docetaxel-related: 0
  Not coded: periphery sensory neuropathy Grade 5, Docetaxel-related: 0
  Vomiting Grade 1, Docetaxel-related: 1
  Vomiting Grade 2, Docetaxel-related: 0
  Vomiting Grade 3, Docetaxel-related: 0
  Vomiting Grade 4, Docetaxel-related: 0
  Vomiting Grade 5, Docetaxel-related: 0
[1]; GEN1046 in combination with Docetaxel
  Hepatotoxicity: No reported drug-related hepatoxicities
[2]
  Tumor outgrowth: comparable to the PBS-treated group
